Assays:
Assay type in all cases: in vivo
Avena fatua = assay: Test Example 4: herbicidal effect by soil treatment (symbol I)
Outline: (§1)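 Seeds were sown in sterilized diluvial soil, covered with about 1.5 cm of soil, and the soil surface was sprayed with a water-diluted emulsion of the compound at a predetermined rate. Plants grew in a greenhouse at 25° C. to 30° C.; effects were scored visually 3 weeks after application.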

rice plant = assay: Test Example 5: effect on crop by foliage application, plastic box (symbol b); conditions: 320 g/ha, 3 weeks after application
Outline: (§2)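 Diluvial soil, sterilized and boxed (21 × 13 × 7 cm), received spot-sown seed covered by about 1.5 cm soil; plants were then greenhouse-grown at 25–30° C.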

[1] = system: Echinochloa crus-galli var. crus-galli; assay: Test Example 4: herbicidal effect by soil treatment (symbol H)
Outline: as §1

corn [2] = assay: Test Example 5: effect on crop by foliage application, plastic box (symbol c); conditions: 320 g/ha, 3 weeks after application
Outline: as §2

[3] = system: Echinochloa oryzacola Vasing.; assay: Test Example 2: herbicidal activity, application during weed generation in submerged conditions (symbol A); conditions: Table 23; application herbicide amount 320 g/ha; grade 0-5 by criteria of Test Example 1
Outline: (§3)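 Flooded-soil post-emergence test: emulsion of compound, water-diluted to target rate, applied to paddy water surface at 1–2 leaf stage of mixed-sown weeds (alluvial soil, 4 cm water, 25–30° C. greenhouse); visual rating 3 weeks after application.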

Monochoria vaginalis [4] = assay: Test Example 2: herbicidal activity, application during weed generation in submerged conditions (symbol C); conditions: Table 23; application herbicide amount 320 g/ha; grade 0-5 by criteria of Test Example 1
Outline: as §3

Chenopodium album = assay: Test Example 4: herbicidal effect by soil treatment (symbol O)
Outline: as §1

corn [5] = assay: Test Example 4: effect on crop by soil treatment (symbol c); conditions: for c: corn, effect on crop grade: application herbicide amount 320 g/ha
Outline: (§4)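 Crop seed is sown in spots together with several weed species in a box of sterilized diluvial soil. It is covered by about 1.5 cm of soil and kept in a greenhouse held between 25° C. and 30° C.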

Abutilon theophrasti = assay: Test Example 4: herbicidal effect by soil treatment (symbol M)
Outline: as §1

Monochoria vaginalis [6] = assay: Test Example 1: herbicidal activity, application before weed generation in submerged conditions (symbol C); conditions: application herbicide amount 320 g/ha
Outline: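 Application before weed emergence: an aqueous dilution of the emulsion formulation was poured onto the surface of 4 cm-deep floodwater on the day of sowing. Effect was judged after 3 weeks (greenhouse, 25–30 °C).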

rapeseed = assay: Test Example 4: effect on crop by soil treatment (symbol g); conditions: for g: rapeseed, effect on crop grade: application herbicide amount 320 g/ha
Outline: as §4

Galium spurium = assay: Test Example 4: herbicidal effect by soil treatment (symbol Q)
Outline: as §1

Scirpus juncoides = assay: Test Example 2: herbicidal activity, application during weed generation in submerged conditions (symbol B); conditions: Table 23; application herbicide amount 320 g/ha; grade 0-5 by criteria of Test Example 1
Outline: as §3

soybean = assay: Test Example 5: effect on crop by foliage application, plastic box (symbol d); conditions: 320 g/ha, 3 weeks after application
Outline: as §2

Digitaria ciliaris = assay: Test Example 4: herbicidal effect by soil treatment (symbol F)
Outline: as §1

Lolium multiflorum Lam. = assay: Test Example 5: herbicidal effect by foliage application, plastic box (symbol K); conditions: 320 g/ha, 3 weeks after application
Outline: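 Emulsion formulation, diluted with water to the intended rate, was applied uniformly to leaves by small sprayer. Recipients were 14-day greenhouse-grown seedlings (25° C. to 30° C.). Assessment followed at 3 weeks.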

Apera spica-venti = assay: Test Example 4: herbicidal effect by soil treatment (symbol L)
Outline: as §1

[7] = application herbicide amount 320 g/ha

Compound | I: Avena fatua, herbicidal effect grade (Avena fatua; [7]) | b: directly sowed rice plant, effect on crop grade (rice plant) | H: Echinochloa crus-galli var. crus-galli, herbicidal effect grade [1, 7] | c: corn, effect on crop grade (corn [2]) | Herbicidal effect grade, A: Echinochloa oryzacola Vasing. [3] | Herbicidal effect grade, C: Monochoria vaginalis (Monochoria vaginalis [4]) | O: Chenopodium album, herbicidal effect grade (Chenopodium album; [7]) | c: corn, effect on crop grade (corn [5]) | M: Abutilon theophrasti, herbicidal effect grade (Abutilon theophrasti; [7]) | Herbicidal effect grade, C: Monochoria vaginalis (Monochoria vaginalis [6]) | g: rapeseed, effect on crop grade (rapeseed) | Q: Galium spurium, herbicidal effect grade (Galium spurium; [7]) | Herbicidal effect grade, B: Scirpus juncoides (Scirpus juncoides) | d: soybean, effect on crop grade (soybean) | F: Digitaria ciliaris, herbicidal effect grade (Digitaria ciliaris; [7]) | K: Lolium multiflorum Lam., herbicidal effect grade (Lolium multiflorum Lam.) | L: Apera spica-venti, herbicidal effect grade (Apera spica-venti; [7]) | other results
CCOC(=O)C(C(=O)C(F)(F)F)C1CC(O)=C(c2c(C)cc(C)cc2C)C1=O (stereo not shown) [2-010] | 0 (Herbicidal ratio of 5% or lower (almost no effect)) | 0 (Herbicidal ratio of 5% or lower (almost no effect)) | 0 (Herbicidal ratio of 5% or lower (almost no effect)) | 0 (Herbicidal ratio of 5% or lower (almost no effect)) | 0 (Herbicidal ratio of 5% or lower (almost no effect)) | 0 (Herbicidal ratio of 5% or lower (almost no effect)) | 0 (Herbicidal ratio of 5% or lower (almost no effect)) | 0 (Herbicidal ratio of 5% or lower (almost no effect)) | 0 (Herbicidal ratio of 5% or lower (almost no effect)) | 0 (Herbicidal ratio of 5% or lower (almost no effect)) | 0 (Herbicidal ratio of 5% or lower (almost no effect)) | 0 (Herbicidal ratio of 5% or lower (almost no effect)) | 0 (Herbicidal ratio of 5% or lower (almost no effect)) | 0 (Herbicidal ratio of 5% or lower (almost no effect)) | 0 (Herbicidal ratio of 5% or lower (almost no effect)) | 0 (Herbicidal ratio of 5% or lower (almost no effect)) | 0 (Herbicidal ratio of 5% or lower (almost no effect)) | 
CON=CC1CC(O)=C(c2c(C)cc(C)cc2C)C1=O (mixture of isomers) [3-001] | 0 (Herbicidal ratio of 5% or lower (almost no effect)) | 4 (Herbicidal ratio of 70% or higher and lower than 90%) | 0 (Herbicidal ratio of 5% or lower (almost no effect)) | 2 (Herbicidal ratio of 20% or higher and lower than 40%) | 0 (Herbicidal ratio of 5% or lower (almost no effect)) | 0 (Herbicidal ratio of 5% or lower (almost no effect)) | 0 (Herbicidal ratio of 5% or lower (almost no effect)) | 0 (Herbicidal ratio of 5% or lower (almost no effect)) | 0 (Herbicidal ratio of 5% or lower (almost no effect)) | 0 (Herbicidal ratio of 5% or lower (almost no effect)) | 0 (Herbicidal ratio of 5% or lower (almost no effect)) | 0 (Herbicidal ratio of 5% or lower (almost no effect)) | 0 (Herbicidal ratio of 5% or lower (almost no effect)) | 0 (Herbicidal ratio of 5% or lower (almost no effect)) | 2 (Herbicidal ratio of 20% or higher and lower than 40%) | 4 (Herbicidal ratio of 70% or higher and lower than 90%) | 5 (Herbicidal ratio of 90% or more (almost completely withered)) | 
CCOC(=O)C(C(=O)C(C)C)C1CC(O)=C(c2c(C)cc(C)cc2C)C1=O (stereo not shown) [2-009] | 0 (Herbicidal ratio of 5% or lower (almost no effect)) | 4 (Herbicidal ratio of 70% or higher and lower than 90%) | 1 (Herbicidal ratio of 5% or higher and lower than 20%) | 0 (Herbicidal ratio of 5% or lower (almost no effect)) | 0 (Herbicidal ratio of 5% or lower (almost no effect)) | 0 (Herbicidal ratio of 5% or lower (almost no effect)) | 0 (Herbicidal ratio of 5% or lower (almost no effect)) | 0 (Herbicidal ratio of 5% or lower (almost no effect)) | 0 (Herbicidal ratio of 5% or lower (almost no effect)) | 0 (Herbicidal ratio of 5% or lower (almost no effect)) | 0 (Herbicidal ratio of 5% or lower (almost no effect)) | 0 (Herbicidal ratio of 5% or lower (almost no effect)) | 0 (Herbicidal ratio of 5% or lower (almost no effect)) | 0 (Herbicidal ratio of 5% or lower (almost no effect)) | 2 (Herbicidal ratio of 20% or higher and lower than 40%) | 1 (Herbicidal ratio of 5% or higher and lower than 20%) | 0 (Herbicidal ratio of 5% or lower (almost no effect)) | 
CON=C(C)CC1CC(O)=C(c2c(C)cc(OCC(F)(F)F)cc2C)C1=O (stereo not shown) [6-049] | 5 (Herbicidal ratio of 90% or more (almost completely withered)) | 5 (Herbicidal ratio of 90% or more (almost completely withered)) | 5 (Herbicidal ratio of 90% or more (almost completely withered)) | 5 (Herbicidal ratio of 90% or more (almost completely withered)) | 5 (Herbicidal ratio of 90% or more (almost completely withered)) | 3 (Herbicidal ratio of 40% or higher and lower than 70%) | 4 (Herbicidal ratio of 70% or higher and lower than 90%) | 5 (Herbicidal ratio of 90% or more (almost completely withered)) | 4 (Herbicidal ratio of 70% or higher and lower than 90%) | 4 (Herbicidal ratio of 70% or higher and lower than 90%) | 5 (Herbicidal ratio of 90% or more (almost completely withered)) | 3 (Herbicidal ratio of 40% or higher and lower than 70%) | 4 (Herbicidal ratio of 70% or higher and lower than 90%) | 2 (Herbicidal ratio of 20% or higher and lower than 40%) | 5 (Herbicidal ratio of 90% or more (almost completely withered)) | 5 (Herbicidal ratio of 90% or more (almost completely withered)) | 5 (Herbicidal ratio of 90% or more (almost completely withered)) | 
C=CCOC(=O)OC1=C(c2c(C)cc(C)cc2C)C(=O)C(CC(C)=NOC)C1 (stereo not shown) [1-146] |  |  |  |  | 5 (Herbicidal ratio of 90% or more (almost completely withered)) | 4 (Herbicidal ratio of 70% or higher and lower than 90%) |  |  |  | 1 (Herbicidal ratio of 5% or higher and lower than 20%) |  |  | 5 (Herbicidal ratio of 90% or more (almost completely withered)) |  |  |  |  | I: Avena fatua, herbicidal effect grade (Avena fatua; 320 g/ha): 4 (Herbicidal ratio of 70% or higher and lower than 90%); b: directly sowed rice plant, effect on crop (criteria 0-5) (rice plant): 5 (Herbicidal ratio of 90% or more (almost completely withered)); H: Echinochloa crus-galli var. crus-galli, herbicidal effect grade ([1]; 320 g/ha): 5 (Herbicidal ratio of 90% or more (almost completely withered)); c: corn, effect on crop (criteria 0-5) (corn [2]): 5 (Herbicidal ratio of 90% or more (almost completely withered)); O: Chenopodium album, herbicidal effect grade (Chenopodium album; 320 g/ha): 0 (Herbicidal ratio of 5% or lower (almost no effect)); c: corn, effect grade on crop (corn [5]; 320 g/ha): 1 (Herbicidal ratio of 5% or higher and lower than 20%); M: Abutilon theophrasti, herbicidal effect grade (Abutilon theophrasti; 320 g/ha): 5 (Herbicidal ratio of 90% or more (almost completely withered)); g: rapeseed, effect grade on crop (rapeseed; 320 g/ha): 5 (Herbicidal ratio of 90% or more (almost completely withered)); Q: Galium spurium, herbicidal effect grade (Galium spurium; 320 g/ha): 0 (Herbicidal ratio of 5% or lower (almost no effect)); d: soybean, effect on crop (criteria 0-5) (soybean): 4 (Herbicidal ratio of 70% or higher and lower than 90%); F: Digitaria ciliaris, herbicidal effect grade (Digitaria ciliaris; 320 g/ha): 5 (Herbicidal ratio of 90% or more (almost completely withered)); K: Lolium multiflorum Lam., herbicidal effect (criteria 0-5) (Lolium multiflorum Lam.): 5 (Herbicidal ratio of 90% or more (almost completely withered)); L: Apera spica-venti, herbicidal effect grade (Apera spica-venti; 320 g/ha): 5 (Herbicidal ratio of 90% or more (almost completely withered))

From US11000033B2, “Ketone or oxime compound, and herbicide” (NISSAN CHEMICAL CORPORATION, priority 2014, dated 2021)
